The target of this experiment is T1, CDK2/CyclinA (Homo sapiens, UniProt P24941).
T1 construct: purchased Upstate Biotechnology
Kind of experiment: Measurement of CDK2 kinase inhibitory activity (IC50), 33P-ATP / histone H1 filter assay. The class given is biochemical. The procedure:
Measurement of CDK2 Kinase Inhibitory Activity (IC50)
Compounds of the invention were tested for kinase inhibitory activity using the following protocol.
1.7 μl of active CDK2/CyclinA (Upstate Biotechnology, 10 U/μl) is diluted in assay buffer (250 μl of 10× strength assay buffer (200 mM MOPS pH 7.2, 250 mM β-glycerophosphate, 50 mM EDTA, 150 mM MgCl2), 11.27 μl 10 mM ATP, 2.5 μl 1M DTT, 25 μl 100 mM sodium orthovanadate, 708.53 μl H2O), and 10 μl mixed with 10 μl of histone substrate mix (60 μl bovine histone H1 (Upstate Biotechnology, 5 mg/ml), 940 μl H2O, 35 μCi γ^33P-ATP) and added to 96 well plates along with 5 μl of various dilutions of the test compound in DMSO (up to 2.5%). The reaction is allowed to proceed for 5 hours before being stopped with an excess of ortho-phosphoric acid (30 μl at 2%).
γ^33P-ATP which remains unincorporated into the histone H1 is separated from phosphorylated histone H1 on a Millipore MAPH filter plate. The wells of the MAPH plate are wetted with 0.5% orthophosphoric acid, and then the results of the reaction are filtered with a Millipore vacuum filtration unit through the wells. Following filtration, the residue is washed twice with 200 μl of 0.5% orthophosphoric acid. Once the filters have dried, 25 μl of Microscint 20 scintillant is added, and then counted on a Packard Topcount for 30 seconds.

This is an account of results in US20060135589A1, “1h-Indazole-3-carboxamide compounds as cyclin dependent kinase (cdk) inhibitors” (Astex Technology, Inc., priority 2002, published 2006).

Usually inhibition stands for how much of the control response was suppressed. The low end stands for a response near the control, the high end for a response far below the control.

As to `CC(=O)Nc1ccc(NC(=O)c2n[nH]c3ccc(I)cc23)cn1` [Example 59], the inhibition at 50 µM was no less than 50%.

The molecule `Nc1ccc2[nH]nc(C(=O)Nc3ccccc3)c2c1` [Example 60, 5-Amino-1H-indazole-3-carboxylic acid phenylamide] yielded an inhibition at 50 µM of no less than 50%.

With `CNS(=O)(=O)Cc1ccc(NC(=O)c2n[nH]c3ccc(NC(=O)NCCCl)cc23)cc1` [Example 63, 5-[3-(2-Chloro-ethyl)-ureido]-1H-indazole-3-carboxylic acid (4-methylsulphamoylmethyl-phenyl)-amide], the inhibition at 50 µM is no less than 50%.

In turn, `O=C(NC1CCNCC1)c1n[nH]c2ccc(I)cc12` [Example 64, 5-Iodo-1H-indazole-3-carboxylic acid piperidin-4-ylamide] registered an inhibition at 50 µM of no less than 50%.

Consider `CC(=O)NCc1ccc(NC(=O)c2n[nH]c3ccc(Cl)cc23)cc1` [Example 65, 5-Chloro-1H-indazole-3-carboxylic acid [4-(acetylamino-methyl)-phenyl]-amide], for which the inhibition at 50 µM is no less than 50%.

In turn, `O=C(NC1CCN(C(=O)C(F)(F)F)CC1)c1n[nH]c2ccccc12` [Example 66, 1H-Indazole-3-carboxylic acid [1-(2,2,2 trifluoro-acetyl)-Piperidin-4-yl]-amide] returned an inhibition at 50 µM of no less than 50%.

As to `O=C(NC1CCNCC1)c1n[nH]c2ccccc12` [Example 67, 1H-Indazole-3-carboxylic acid piperidin-4-ylamide], the inhibition at 50 µM is no less than 50%.

Take `CC(=O)N1CCC(NC(=O)c2n[nH]c3ccccc23)CC1` [Example 68, 1H-Indazole-3-carboxylic acid (1-acetyl-piperidin-4-yl)-amide]: the inhibition at 50 µM is no less than 50%.

As for `CS(=O)(=O)N1CCC(NC(=O)c2n[nH]c3ccccc23)CC1` [Example 69, 1H-Indazole-3-carboxylic acid (1-methanesulphonyl-piperidin-4-yl)-amide], the inhibition at 50 µM is no less than 50%.

For the molecule `O=C(Nc1ccc(F)cc1)c1n[nH]c2ccccc12` [Example 70, 1H-Indazole-3-carboxylic acid (4-fluoro-phenyl)-amide], the inhibition at 50 µM is no less than 50%.

`O=C(Nc1ccc(F)cc1)c1n[nH]c2cccc(Br)c12` [Example 71, 4-Bromo-1H-indazole-3-carboxylic acid (4-fluoro-phenyl)-amide] displayed an inhibition at 50 µM of no less than 50%.

Turning to `Cc1ccc2[nH]nc(C(=O)Nc3ccc(F)cc3)c2c1` [Example 72, 5-Methyl-1H-indazole-3-carboxylic acid (4-fluoro-phenyl)-amide], the inhibition at 50 µM was no less than 50%.

For the molecule `O=C(Nc1ccc(F)cc1)c1n[nH]c2cc(Br)ccc12` [Example 73, 6-Bromo-1H-indazole-3-carboxylic acid (4-fluoro-phenyl)-amide], the inhibition at 50 µM was no less than 50%.

As for `O=C(Nc1ccc(N2CCOCC2)cc1)c1n[nH]c2ccc(Cl)cc12` [Example 74], the inhibition at 50 µM was no less than 50%.

Turning to `O=C(Nc1cccc(-c2nnn[nH]2)c1)c1n[nH]c2ccc(Cl)cc12` [Example 75], the inhibition at 50 µM is no less than 50%.

In turn, `CS(=O)(=O)c1cccc(NC(=O)c2n[nH]c3ccc([N+](=O)[O-])cc23)c1` [Example 78] yielded an inhibition at 50 µM of no less than 50%.

The molecule `O=C(Nc1ccccc1)c1n[nH]c2ccc(F)cc12` [Example 80] yielded an inhibition at 50 µM of no less than 50%.

Regarding `COC(=O)N1CCC(NC(=O)c2n[nH]c3ccc(Cl)cc23)C1` (stereo not shown) [Example 81, 3-[(5-Chloro-1H-indazole-3-carbonyl)-amino]-pyrrolidine-1-carboxylic acid methyl ester], the inhibition at 50 µM is no less than 50%.

`O=C(Nc1ccccc1)c1n[nH]c2ccc(N3CCCC3)cc12` [Example 84, 5-pyrrolidin-1-yl-1H-indazole-3-carboxylic acid phenylamide] showed an inhibition at 50 µM of no less than 50%.

The molecule `O=C(Nc1ccccc1)c1n[nH]c2ccc(-c3ccccc3-c3ccccc3)cc12` [Example 85, 5-Biphenyl-2-yl-1H-indazole-3-carboxylic acid phenylamide] showed an inhibition at 50 µM of no less than 50%.

Turning to `O=C(Nc1ccccc1)c1n[nH]c2ccc(N3CCCS3(=O)=O)cc12` [Example 86, 5-(1,1-Dioxo-1lambda*6*-isothiazolidin-2-yl)-1H-indazole-3-carboxylic acid phenylamide], the inhibition at 50 µM was no less than 50%.

In turn, `O=C(Nc1ccccc1)c1n[nH]c2ccc(CCc3ccccc3)cc12` [Example 87, 5-Phenethyl-1H-indazole-3-carboxylic acid phenylamide] came in with an inhibition at 50 µM of no less than 50%.
